Measurements: patent US20070088043A1, “Novel HDAC inhibitors” (ORCHID RESEARCH LABORATORIES LIMITED., priority 2005, published 2007)

Assays:
[1] = tested on: HCT 116 cells; experiment: Anti-cancer screen (MTT), HCT116; assay type: cell-based; details: Homo sapiens, HCT-116, HCT116 cells, 48 hours, MTT; for GI50: concentration to decrease % growth by 50%; for IC100: concentration to decrease % growth by 100%, read-out: HCT116 TGI; for LC50: concentration to decrease % growth by 150%
Method: (§1) Experimental drugs are screened for anti-cancer activity in three cell lines for their GI50, TGI and LC50 values (using five concentrations for each compound). The cell lines are maintained in DMEM containing 10% fetal bovine serum. 96 well micro titer plates are inoculated with cells in 100 μL for 24 h at 37° C., 5% CO2, 95% air and 100% relative humidity. 5000 HCT 116 cells/well, 5000 NCIH 460 cells/well and 5000 U251 cells/well are plated. A separate plate with these cell lines is also inoculated to determine cell viability before the addition of the compounds (T0).
(§2) Following 24-hour incubation, experimental drugs are added to the 96 well plates. Each plate contains one of the above cell lines and the following in triplicate: five different concentrations (0.01, 0.1, 1, 10 and 100 μM) of four different compounds, appropriate dilutions of a cytotoxic standard and control (untreated) wells. Compounds are dissolved in DMSO to make 20 mM stock solutions on the day of drug addition and frozen at −20° C. Serial dilutions of these 20 mM stock solutions are made in complete growth medium such that 100 μL of these drug solutions in medium, of final concentrations equaling 0.01, 0.1, 1, 10 and 100 μM can be added to the cells in triplicate. Standard drugs whose anti-cancer activity has been well documented and which are regularly used are doxorubicin and SAHA.
(§3) For To measurement, 24 hours after seeding the cells, 10 μL of 3-(4,5-Dimethyl-2-thiazolyl)-2,5-diphenyl-2H-tetrazolium (MTT) solution per well is added and incubation carried out for 3 hours at 37° C., 5% CO2, 95% air and 100% relative humidity, protected from light. Cells incubated with compounds for 48 hours are treated similarly except with the addition of 20 μL MTT solution per well and a subsequent incubation under the same conditions. After 3 hours of MTT incubation, well contents are aspirated carefully followed by addition of 150 μL DMSO per well. Plates are agitated to ensure solution of the formazan crystals in DMSO and absorbance read at 570 nm. […]

[2] = tested on: NCIH460, HCT116, MDAMB231/U251; experiment: Anti-cancer screen, mean GI50 over the cell lines; assay type: cell-based; details: in µM
Method: as §1, §2, §3

[3] = tested on: NCIH 460 cells; experiment: Anti-cancer screen (MTT), NCIH460; assay type: cell-based; details: Homo sapiens, NCI-H460, NCIH460 cells, 48 hours, MTT; for GI50: concentration to decrease % growth by 50%; for IC100: concentration to decrease % growth by 100%, read-out: NCIH460 TGI; for LC50: concentration to decrease % growth by 150%
Method: as §1, §2, §3

[4] = tested on: HDAC (Mouse Liver Extract); experiment: Histone Deacetylase (HDAC) Inhibition Assay using Boc-Lys (Ac)-AMC Substrate; assay type: biochemical; details: mouse liver enzyme, NA = No Activity; for HDAC Inhibition 1 μM / HDAC Inhibition 10 μM: in % (unit assumed)
From the text: HDAC Activitv Screening: Histone Deacetylase (HDAC) Inhibition Assay using Boc-Lys (Ac)-AMC Substrate:
Inhibition of HDAC has been implicated to modulate transcription and to induce apoptosis or differentiation in cancer cells. The fluorometric assay provides a fast and fluorescence based method that eliminates radioactivity, extractions or chromatography, as used in traditional assays. The assay based on two steps. First, the HDAC fluorometric substrate, which comprises an acetylated lysine side chain, is incubated with a sample containing HDAC activity (Mouse Liver Extract). Deacetylation of the substrate sensitizes the substrate, in the second step; treatment with the Trypsin stop solution produces a fluorophore that can be easily analyzed using fluorescence plate reader.
Assay was done in 96 well black microplate and total volume of the assay is 100 ul. Mouse liver enzyme is diluted 1:6 with HDAC buffer. Enzyme cocktail made of 10 ul of diluted enzyme and 30 ul of HDAC buffer. 40 ul of enzyme cocktail dispensed into each well. 10 ul of different concentrations of inhibitor added in to each well, except enzyme control well. Preincubated the plate at 30° C. for 5 minutes. The HDAC reaction is started by adding 50 ul of HDAC substrate (Boc-Lys (Ac)-AMC Substrate) solution. Incubated the plate at 30° C. for 30 minutes. Adding 100 ul of Trypsin stop solution stops the reaction. The plate is incubated again at 30° C. for 20-30 minutes. The release of AMC is monitored by measuring the fluorescence at excitation wavelength of 365 or 360 nm and emission wavelength of 440 or 460 nm. Buffer and substrate alone kept for blank subtraction. (Dennis Wegener et al, Anal. Biochem, 321, 2003, 202-208).

[5] = tested on: MDAMB231/U251; experiment: Anti-cancer screen (MTT), MDAMB231/U251; assay type: cell-based; details: MDAMB231/U251 cells, 48 hours; for GI50: concentration to decrease % growth by 50%; for IC100: concentration to decrease % growth by 100%, read-out: MDAMB231/U251 TGI; for LC50: concentration to decrease % growth by 150%
Method: as §1, §2, §3

Compound | GI50 [1] [µM] | IC100 [1] [µM] | LC50 [1] [µM] | Mean GI50 [2] | GI50 [3] [µM] | IC100 [3] [µM] | LC50 [3] [µM] | HDAC Inhibition 1 μM [4] | HDAC Inhibition 10 μM [4] | GI50 [5] [µM] | IC100 [5] [µM] | LC50 [5] [µM] | IC50 [4] [µM]
CCOc1ccc2nc(NC(=O)CN3CCN(C(=O)CCCCCCC(=O)N(O)C(C)=O)CC3)sc2c1 [Example 37, 8-{4-[2-(6-Ethoxy-1,3-benzothiazol-2-ylamino)-2-oxoethyl]piperazin-1-yl}-N-acetyl-N-hydroxy-8-oxooctanamide] | 7 | 44 | > 100 | 17.00 | 40 | 74 | > 100 | 55.57 | 94.70 | 4 | 45 | 95 | –
COc1cc(CNC(=O)CN2CCN(C(=O)CCCCSC(C)=O)CC2)cc(OC)c1 [Example 20] | > 100 | > 100 | > 100 | >100 | > 100 | > 100 | > 100 | 26.4 | 55.4 | > 100 | > 100 | > 100 | –
CC(=O)SCCCCC(=O)N1CCN(CC(=O)Nc2nccs2)CC1 [Example 7, 2-[4-(5-Thioacetylpentanoyl)piperazin-1-yl]-N-(1,3-thiozole-2-yl)acetamide] | 85 | > 100 | > 100 | 67.50 | 50 | 88 | > 100 | 27.76 | 45.96 | > 100 | > 100 | > 100 | –
CC(=O)SCCCCC(=O)N1CCN(CC(=O)Nc2nc3c(C)cccc3s2)CC1 [Example 13, 2-[4-(5-Thioacetylpentanoyl)piperazin-1-yl]-N-(4-methyl-1,3-benzothiazol-2-yl)acetamide] | 6 | > 100 | > 100 | >100 | > 100 | > 100 | > 100 | 26.73 | 55.56 | 6 | 30 | > 100 | –
CC(=O)SCCCCCC(=O)N1CCN(CC(=O)N2CCOCC2)CC1 [Example 19, 2-[4-(6-Thioacetylhexanoyl)piperazin-1-yl]-N-(morpholine)acetamide] | > 100 | > 100 | > 100 | >100 | > 100 | > 100 | > 100 | 18.82 | 51.25 | 57 | > 100 | > 100 | –
CC(=O)N(O)C(=O)CCCCCCC(=O)N1CCN(CC(=O)Nc2nc3ccccc3s2)CC1 [Example 39, 8-{4-[2-(1,3-Benzothiazol-2-ylamino)-2-oxoethyl]piperazin-1-yl}-N-acetyl-N-hydroxy-8-oxo octanamide] | 8 | 57 | 98 | 24.7 | 44 | 48 | > 100 | 81.4 | 96.6 | 22 | 52 | 78 | 0.55
CC(=O)SCCCCC(=O)N1CCN(CC(=O)Nc2nc(C)cs2)CC1 [Example 4, 2-[4-(5-Thioacetylpentanoyl)piperazin-1-yl]-N-(4-methyl-1,3-thiazol-2-yl)acetamide] | 60 | > 100 | > 100 | 38 | 9 | 91 | > 100 | 15.82 | 50.88 | 45 | > 100 | > 100 | –
CC(=O)ON(C(C)=O)C(=O)CCCCCCC(=O)N1CCN(CC(=O)Nc2nc3ccc(C)cc3s2)CC1 [Example 38] | 25 | 88 | > 100 | >100 | 40 | > 100 | > 100 | 37.83 | 84.23 | 0.4 | 30 | > 100 | –
CC(=O)SCCCCCC(=O)N1CCN(CC(=O)Nc2cccc(F)c2)CC1 [Example 22, 2-[4-(6-Thioacetylhexanoyl)piperazin-1-yl]-N-(6-fluorophenyl-2-yl)acetamide] | 67 | > 100 | > 100 | >100 | > 100 | > 100 | > 100 | 6.0 | 50.0 | > 100 | > 100 | > 100 | –
CC(=O)SCCCCC(=O)N1CCN(C(=O)CNc2nc3ccccc3s2)CC1 [Example 1, N-{2-[4-(5-thioacetylpentanoyl)piperazin-1-yl]-2-oxoethyl}-1,3-benzothiazol-2-amine] | > 100 | > 100 | > 100 | >100 | > 100 | > 100 | > 100 | 10.48 | 38.59 | 80 | > 100 | > 100 | –
CC(=O)SCCCCC(=O)N1CCN(CC(=O)Nc2cccc(F)c2)CC1 [Example 23, 2-[4-(5-Thioacetylpentanoyl)piperazin-1-yl]-N-(6-fluorophenyl-2-yl)acetamide] | 63 | > 100 | > 100 | >100 | > 100 | > 100 | > 100 | 47.2 | 81.7 | 38 | 78 | > 100 | 4.8
Cc1cccc2sc(NC(=O)CN3CCN(C(=O)CCCCCCC(=O)NOCc4ccccc4)CC3)nc12 [Example 40, 8-{4-[2-(4-Methyl-1,3-benzothiazol-2-ylamino)-2-oxoethyl]piperazin-1-yl}-N-hydroxybenzyl-8-oxo octanamide] | 4.5 | 32 | > 100 | 9.5 | 24 | 85 | > 100 | – | 4.1 | 0.1 | 0.5 | > 100 | –
